Read-outs that look alike come from different tables or passages of the source.
Columns and labels:
advanced PDAC patients = tested on: advanced PDAC patients; parameters: method as in Moore et al, 2007; details: Erlotinib + GEM, ref Moore et al, 2007; cited from earlier work
Capan-1 [1] = experiment: cells; parameters: Viability of PDAC cell lines, ATPlite luminescence, 11-dose single-agent curve fit; details: Homo sapiens, CAPAN-1, 72 h, read-out: EC50 [nM]
Procedure, shortened: (§1)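 cells (1000 to 5000 per well) seeded 24 h before drug addition in a screen at 0.2% final DMSO. Controls were drug-free wells (negative) and 5 µM staurosporine (positive).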

PSN-1 [2] = experiment: cells; parameters: Viability of PDAC cell lines, ATPlite luminescence, 11-dose single-agent curve fit; details: Homo sapiens, PSN1, 72 h, read-out: EC50 [nM]
Procedure, shortened: as §1

MiaPaCa-2 [3] = experiment: cells; parameters: Viability of PDAC cell lines, ATPlite luminescence, 11-dose single-agent curve fit; details: Homo sapiens, MIA PaCa-2, 72 h, read-out: EC50 [nM]
Procedure, shortened: as §1

PANC-1 = experiment: cells; parameters: Viability of PDAC cell lines, ATPlite luminescence, 11-dose single-agent curve fit; details: Homo sapiens, PANC-1, 72 h, read-out: EC50 [nM]
Procedure, shortened: as §1

HuP-T4 [4] = experiment: cells; parameters: Viability of PDAC cell lines, ATPlite luminescence, 11-dose single-agent curve fit; details: Homo sapiens, HuP-T4, 72 h, read-out: EC50 [nM]
Procedure, shortened: as §1

PaTu-8988-T [5] = experiment: cells; parameters: Viability of PDAC cell lines, ATPlite luminescence, 11-dose single-agent curve fit; details: Homo sapiens, PaTu 8988t, 72 h, read-out: EC50 [nM]
Procedure, shortened: as §1

AsPC-1 [6] = experiment: cells; parameters: Viability of PDAC cell lines, ATPlite luminescence, 11-dose single-agent curve fit; details: Homo sapiens, ASPC1, 72 h, read-out: EC50 [nM]
Procedure, shortened: as §1

BxPC-3 = experiment: cells; parameters: ATPlite luminescence viability of PDAC cell lines, 11-dose single-agent curves, 4-parameter fit; details: Homo sapiens, BXPC-3, 72 h, read-out: EC50 [nM]
Procedure, shortened: (§2)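 cells (1000 to 5000 per well) seeded 24 h before drug addition in a combination screen at 0.2% final DMSO. Controls were drug-free wells (negative) and 5 µM staurosporine (positive).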

Suit2-07 = experiment: cells; parameters: ATPlite luminescence viability of PDAC cell lines, 11-dose single-agent curves, 4-parameter fit; details: 72 h, read-out: EC50 [nM]
Procedure, shortened: as §2

HPDE = experiment: cells; parameters: ATPlite luminescence viability of PDAC cell lines, 11-dose single-agent curves, 4-parameter fit; details: HPDE, 72 h, read-out: EC50 [nM]
Procedure, shortened: as §2

Dan-G = experiment: cells; parameters: ATPlite luminescence viability of PDAC cell lines, 11-dose single-agent curves, 4-parameter fit; details: 72 h, read-out: EC50 [nM]
Procedure, shortened: as §2

Colo-357 = experiment: cells; parameters: ATPlite luminescence viability of PDAC cell lines, 11-dose single-agent curves, 4-parameter fit; details: Homo sapiens, COLO357, 72 h, read-out: EC50 [nM]
Procedure, shortened: as §2

FAMPAC = experiment: cells; parameters: ATPlite luminescence viability of PDAC cell lines, 11-dose single-agent curves, 4-parameter fit; details: 72 h, read-out: EC50 [nM]
Procedure, shortened: as §2

WEE1 = details: WEE1, 4 cell line mix lysate, Kinobeads y, ref Klaeger et al. (2017); cited from earlier work
BCR = details: 4 cell line mix lysate, Kinobeads y, ref Klaeger et al. (2017), cited from earlier work
EIF3J = details: 4 cell line mix lysate, Kinobeads y, ref Klaeger et al. (2017), cited from earlier work
ADCK1 = tested on: ADCK1; parameters: method as in Klaeger et al. (2017); details: ADCK1, 4 cell line mix lysate, Kinobeads y, ref Klaeger et al. (2017), cited from earlier work
IKBKE = details: 4 cell line mix lysate, Kinobeads y, ref Klaeger et al. (2017); cited from earlier work
INPPL1 = tested on: INPPL1; parameters: method as in Klaeger et al. (2017); details: INPPL1, 4 cell line mix lysate, Kinobeads y, ref Klaeger et al. (2017), cited from earlier work
TBK1 = details: TBK1, 4 cell line mix lysate, Kinobeads y, ref Klaeger et al. (2017); cited from earlier work
MAP3K4 = details: cited from earlier work; for Kd: read-out: KDapp
AZI2 = details: AZI2, 4 cell line mix lysate, Kinobeads y, ref Klaeger et al. (2017), cited from earlier work
CSNK2B = details: 4 cell line mix lysate, Kinobeads y, ref Klaeger et al. (2017), cited from earlier work
CSNK2A1;CSNK2A3 = details: CSNK2A1;CSNK2A3, 4 cell line mix lysate, Kinobeads y, ref Klaeger et al. (2017), cited from earlier work
EPHB6 = tested on: EPHB6; parameters: method as in Klaeger et al. (2017); details: EPHB6, 4 cell line mix lysate, Kinobeads y, ref Klaeger et al. (2017), cited from earlier work
GAK = details: 4 cell line mix lysate, Kinobeads y, ref Klaeger et al. (2017), cited from earlier work
CSNK2A2 = details: CSNK2A2, 4 cell line mix lysate, Kinobeads y, ref Klaeger et al. (2017), cited from earlier work
TANK = details: 4 cell line mix lysate, Kinobeads y, ref Klaeger et al. (2017), cited from earlier work
GRB2 = tested on: GRB2; parameters: method as in Klaeger et al. (2017); details: GRB2, 4 cell line mix lysate, Kinobeads y, ref Klaeger et al. (2017), cited from earlier work
ADK = details: 4 cell line mix lysate, Kinobeads y, ref Klaeger et al. (2017), cited from earlier work
TBKBP1 = details: TBKBP1, 4 cell line mix lysate, Kinobeads y, ref Klaeger et al. (2017), cited from earlier work
NEK3 = tested on: NEK3; parameters: method as in Klaeger et al. (2017); details: NEK3, 4 cell line mix lysate, Kinobeads y, ref Klaeger et al. (2017), cited from earlier work
ABL1 = details: ABL1, 4 cell line mix lysate, Kinobeads y, ref Klaeger et al. (2017); cited from earlier work
13 PDAC cell lines = experiment: Phenotypic drug combination viability screen (ATPlite, 72 h), cell line panel; format: cell-based, human; details: of 13 cell lines; Bliss model
Method: Cell viability was assessed by measuring ATP levels to indicate metabolic activity.
Afterward, small amounts were transferred to 384-well intermediate plates (Greiner Bio-One GmbH, Germany). […] For drug combination screening, 1000 to 5000 cells were seeded into 384-well plates (CulturPlate™, Perkin Elmer, MA, USA) using a Multidrop™ Combi Reagent Dispenser (Thermo Scientific, MA, USA) in 50 µl medium per well 24 h prior to drug treatment (seeding densities see Appendix Table S1). […] The final DMSO concentration in each well was 0.2%. […] Eight wells per plate without library drug served as negative controls, and sixteen wells per plate containing 5 µM Staurosporine served as positive controls. Control plates not containing any drug were used to correct for incubation effects, and data quality was assessed by calculation of Z-prime of positive and negative controls according to1 Z-prime=1−3SDpos+3SDneg/[…] where SD is the standard deviation. […] Dose–response curves from the experimental and hypothetical data were compared, and shifts in AUC were used to describe combination effects (AUC∆ = AUChypothetical − AUCexperimental). […] Only combinations with R^2 > 0.8 in both conditions were considered in the synergy analysis.

30 PDAC cell lines = details: ref Jaaks et al, 2022; cited from earlier work
Capan-1 [7] = experiment: cells; parameters: ATPlite luminescence viability of PDAC cell lines, 11-dose single-agent curves, 4-parameter fit; details: Homo sapiens, CAPAN-1, 72 h, read-out: EC50 [nM]
Procedure, shortened: as §2

PSN-1 [8] = experiment: cells; parameters: ATPlite luminescence viability of PDAC cell lines, 11-dose single-agent curves, 4-parameter fit; details: Homo sapiens, PSN1, 72 h, read-out: EC50 [nM]
Procedure, shortened: as §2

MiaPaCa-2 [9] = experiment: cells; parameters: ATPlite luminescence viability of PDAC cell lines, 11-dose single-agent curves, 4-parameter fit; details: Homo sapiens, MIA PaCa-2, 72 h, read-out: EC50 [nM]
Procedure, shortened: as §2

HuP-T4 [10] = experiment: cells; parameters: ATPlite luminescence viability of PDAC cell lines, 11-dose single-agent curves, 4-parameter fit; details: Homo sapiens, HuP-T4, 72 h, read-out: EC50 [nM]
Procedure, shortened: as §2

PaTu-8988-T [11] = experiment: cells; parameters: ATPlite luminescence viability of PDAC cell lines, 11-dose single-agent curves, 4-parameter fit; details: Homo sapiens, PaTu 8988t, 72 h, read-out: EC50 [nM]
Procedure, shortened: as §2

AsPC-1 [12] = experiment: cells; parameters: ATPlite luminescence viability of PDAC cell lines, 11-dose single-agent curves, 4-parameter fit; details: Homo sapiens, ASPC1, 72 h, read-out: EC50 [nM]
Procedure, shortened: as §2

[13] = MAP3K4, 4 cell line mix lysate, Kinobeads y, ref Klaeger et al. (2017)

For C#Cc1cccc(Nc2ncnc3cc(OCCOC)c(OCCOC)cc23)c1 [Erlotinib], the “improvement of overall survival over GEM alone” value (advanced PDAC patients) is listed as “two weeks”, the EC50 (Capan-1 [1]) is listed as 2940 nM and the EC50 (PSN-1 [2]) is listed as 5920 nM. For the same molecule, the EC50 (MiaPaCa-2 [3]) was 4050 nM, the EC50 (PANC-1) was 36.8 nM and the EC50 (HuP-T4 [4]) was 8400 nM. The EC50 (PaTu-8988-T [5]) was 5260 nM, the EC50 (AsPC-1 [6]) was over 10000 nM and the EC50 (BxPC-3) was 2060 nM. It also gave an EC50 (Suit2-07) of over 10000 nM, an EC50 (HPDE) of 552 nM and an EC50 (Dan-G) of 630 nM. The EC50 (Colo-357) was 1040 nM and the EC50 (FAMPAC) was 3940 nM.
In the case of C=CCn1c(=O)c2cnc(Nc3ccc(N4CCN(C)CC4)cc3)nc2n1-c1cccc(C(C)(C)O)n1 [Adavosertib (MK-1775)], the EC50 (WEE1) is listed as […], the Kd (BCR; read-out: KDapp) is listed as […] and the EC50 (BCR) is listed as 3.99 µM. For the same molecule, the pKDapp (BCR) was […], the Kd (EIF3J; read-out: KDapp) was 0.5 µM and the EC50 (EIF3J) was 0.5 µM. The pKDapp (EIF3J) was 6.30, the EC50 (ADCK1) was 3.05 µM and the pKDapp (ADCK1) was […]. For the same molecule, the Kd (ADCK1; read-out: KDapp) was […], the EC50 (IKBKE) was […] and the EC50 (INPPL1) was 1.47 µM. For the same molecule, the pKDapp (INPPL1) was 6.15, the Kd (INPPL1; read-out: KDapp) was 0.712 µM and the EC50 (TBK1) was […]. For the same molecule, the EC50 (MAP3K4; [13]) was 0.0775 µM, the pKDapp (MAP3K4; [13]) was 7.28 and the Kd (MAP3K4; [13]) was 0.052 µM. The EC50 (AZI2) was […], the pKDapp (AZI2) was 5.91 and the Kd (AZI2; read-out: KDapp) was 1.23 µM. The Kd (CSNK2B; read-out: KDapp) was […], the EC50 (CSNK2B) was […] and the pKDapp (CSNK2B) was […]. The EC50 (CSNK2A1;CSNK2A3) was 0.627 µM, the pKDapp (CSNK2A1;CSNK2A3) was 6.20 and the Kd (CSNK2A1;CSNK2A3; read-out: KDapp) was 0.627 µM. The EC50 (EPHB6) was 0.549 µM, the pKDapp (EPHB6) was 6.47 and the Kd (EPHB6; read-out: KDapp) was 0.337 µM. The Kd (GAK; read-out: KDapp) was […], the EC50 (GAK) was 0.745 µM and the pKDapp (GAK) was […]. For the same molecule, the EC50 (CSNK2A2) was 0.428 µM, the pKDapp (CSNK2A2) was […] and the Kd (CSNK2A2; read-out: KDapp) was […]. The Kd (TANK; read-out: KDapp) was […], the EC50 (TANK) was 2.87 µM and the pKDapp (TANK) was […]. The EC50 (GRB2) was 2.71 µM, the pKDapp (GRB2) was […] and the Kd (GRB2; read-out: KDapp) was […]. The Kd (ADK; read-out: KDapp) was 0.0126 µM, the EC50 (ADK) was 0.0126 µM and the pKDapp (ADK) was 7.90. For the same molecule, the EC50 (TBKBP1) was 2.18 µM, the pKDapp (TBKBP1) was […] and the Kd (TBKBP1; read-out: KDapp) was […]. The EC50 (NEK3) was 0.98 µM, the pKDapp (NEK3) was 6.08 and the Kd (NEK3; read-out: KDapp) was 0.837 µM. For the same molecule, the EC50 (ABL1) was 6.34 µM.
For C=CCn1c(=O)c2cnc(Nc3ccc(N4CCN(C)CC4)cc3)nc2n1-c1cccc(C(C)(C)O)n1 [Adavosertib], the “number of cell lines with synergy with GEM” value (13 PDAC cell lines) is listed as […], the Kd (MAP3K4; Kinobeads, ref Klaeger et al, 2017a, Reinecke et al, 2023a) is listed as 0.052 µM and the “synergy with GEM” value (30 PDAC cell lines) is listed as “to a lesser extent”. The EC50 (Capan-1 [7]) was 327 nM, the EC50 (PSN-1 [8]) was 464 nM and the EC50 (MiaPaCa-2 [9]) was 244 nM. It also gave an EC50 (Suit2-07) of 206 nM, an EC50 (HuP-T4 [10]) of 5570 nM and an EC50 (HPDE) of 946 nM. The EC50 (Dan-G) was 147 nM, the EC50 (PaTu-8988-T [11]) was 154 nM and the EC50 (Colo-357) was 135 nM. It also gave an EC50 (AsPC-1 [12]) of 171 nM and an EC50 (FAMPAC) of 268 nM.
For NC(=O)Nc1cc(-c2cccc(F)c2)sc1C(=O)N[C@H]1CCCNC1 [AZD7762], the “synergy with GEM” value (30 PDAC cell lines) is given as “nearly half of the cell lines”.
